Entries after “also recorded” stand apart in the source; their conditions may differ.
Tests used:
[1] = test system: human colon cancer cells (HCT-116); details: cited from earlier work
Tester strain TA98 = assay: Ames test (bacterial reverse mutation), strain TA98; type: cell-based, Salmonella typhimurium; details: TA98, all tested concentrations
Description: (§1) The mutagenic potential of M13 was assessed using the Ames test. The Ames test, or bacterial reverse mutation test, introduced by Bruce Ames and his group in the early 1970s, is currently widely employed to assess the mutagenic potential of chemical compounds. In this biological assay, several strains of Salmonella ryphimurium carrying mutations in genes responsible for histidine synthesis are used, so these strains cannot produce this critical amino acid. […]
(§2) M13 at concentrations of […] and positive (NaN3; 2-nitrofluorene (NF) and 2-amonoanthracene) and negative (PBS) controls were tested on two tester strains; TA98 reverted from histidine dependence (auxotrophy) to histidine independence (prototrophy) by frameshift mutagens and tester TA100 reverted by mutagens that cause both frameshift and base pair substitution mutations. The colony numbers on the negative, positive control and M13 treated plates were determined by manual counting. The mean number of revertants per plate, the standard deviation, and the mutation factor (i.e., mean number of revertants on the test item plate/mean number of revertants on the vehicle plate) were calculated.
(§3) Next, the mutagenic potential of M13 using a Salmonella typhimurium reverse mutation assay were assessed (Ames test). […]

cancer-related proteins = assay: Proteome Profiler Human XL Oncology Array on Caco-2/BBe cell lysates; type: cell-based; details: 24 hours
Description: The mechanism by which M13 exerts its anti-cancer effects was explored. Cell lysates of Caco-2/BBe cells incubated for 24 hours with free M13, NL, or M13-NL were hybridized on cancer-related protein array membranes (Proteome Profiler™ Human XL Oncology Array), and cell cycle control/phosphorylation profiling protein antibody microarray slides (Cell Cycle Control Phospho Antibody Array).

RIPK4 = RIPK4 (Homo sapiens, UniProt P57078); assay: Radiometric 33P kinase assay, 376 Wild Type Kinase Panel; type: biochemical; details: 20 μM M13, 10 μM ATP; read-out: inhibition of enzyme activity relative to control
Chain of RIPK4 (P57078 whole entry): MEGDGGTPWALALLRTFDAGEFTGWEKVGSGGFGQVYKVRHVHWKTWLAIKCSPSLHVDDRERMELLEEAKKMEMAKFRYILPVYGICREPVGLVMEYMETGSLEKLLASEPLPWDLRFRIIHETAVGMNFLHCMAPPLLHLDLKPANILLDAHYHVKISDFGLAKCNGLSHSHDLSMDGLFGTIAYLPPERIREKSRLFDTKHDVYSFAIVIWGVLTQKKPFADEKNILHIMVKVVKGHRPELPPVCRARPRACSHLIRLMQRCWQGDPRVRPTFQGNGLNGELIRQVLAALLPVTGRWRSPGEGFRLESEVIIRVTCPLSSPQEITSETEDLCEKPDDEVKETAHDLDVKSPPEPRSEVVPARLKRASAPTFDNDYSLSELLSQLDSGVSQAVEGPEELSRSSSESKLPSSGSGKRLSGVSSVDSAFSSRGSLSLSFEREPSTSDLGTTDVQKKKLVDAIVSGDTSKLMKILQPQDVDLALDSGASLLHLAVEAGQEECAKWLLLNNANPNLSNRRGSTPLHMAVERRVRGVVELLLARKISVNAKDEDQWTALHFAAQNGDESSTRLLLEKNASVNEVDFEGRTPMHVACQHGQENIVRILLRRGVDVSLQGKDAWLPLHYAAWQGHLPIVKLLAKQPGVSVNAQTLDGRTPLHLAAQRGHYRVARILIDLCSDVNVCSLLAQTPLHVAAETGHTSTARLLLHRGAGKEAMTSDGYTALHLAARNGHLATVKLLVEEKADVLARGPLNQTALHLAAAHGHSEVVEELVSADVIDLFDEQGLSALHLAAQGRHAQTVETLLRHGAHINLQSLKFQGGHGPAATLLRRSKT
Text: (§4) It was hypothesized that M13 may target kinases to reduce the inflammatory response. Determination and improvement of the selectivity of a compound by screening a large part of the kinome are of pivotal importance in the discovery of M13 signaling pathways for its anti-inflammatory activities. Radiometric assays were used based on the transfer of ^33P-labeled phosphate from ATP to the kinase substrates found in the 376 Wild Type Kinase Panel and 17 Lipid Kinase Panel (Reaction Biology) and a broad kinase selectivity screen for the inhibitory activity of M13 was performed. Briefly, radiometric assays are based on the transfer of 10 μM ^33P-labelled phosphate from ATP to the kinase substrate. […] FIGS. 2A and 2B show the targeted inhibitor effects of M13 on lipid kinases (FIG. 2A) and protein kinases (FIG. 2B).

TRKB = TRKB (Homo sapiens, UniProt Q16620); assay: as above; type: biochemical; details: 20 μM M13, 10 μM ATP; read-out: inhibition of enzyme activity relative to control
Chain of TRKB (Q16620 32-822): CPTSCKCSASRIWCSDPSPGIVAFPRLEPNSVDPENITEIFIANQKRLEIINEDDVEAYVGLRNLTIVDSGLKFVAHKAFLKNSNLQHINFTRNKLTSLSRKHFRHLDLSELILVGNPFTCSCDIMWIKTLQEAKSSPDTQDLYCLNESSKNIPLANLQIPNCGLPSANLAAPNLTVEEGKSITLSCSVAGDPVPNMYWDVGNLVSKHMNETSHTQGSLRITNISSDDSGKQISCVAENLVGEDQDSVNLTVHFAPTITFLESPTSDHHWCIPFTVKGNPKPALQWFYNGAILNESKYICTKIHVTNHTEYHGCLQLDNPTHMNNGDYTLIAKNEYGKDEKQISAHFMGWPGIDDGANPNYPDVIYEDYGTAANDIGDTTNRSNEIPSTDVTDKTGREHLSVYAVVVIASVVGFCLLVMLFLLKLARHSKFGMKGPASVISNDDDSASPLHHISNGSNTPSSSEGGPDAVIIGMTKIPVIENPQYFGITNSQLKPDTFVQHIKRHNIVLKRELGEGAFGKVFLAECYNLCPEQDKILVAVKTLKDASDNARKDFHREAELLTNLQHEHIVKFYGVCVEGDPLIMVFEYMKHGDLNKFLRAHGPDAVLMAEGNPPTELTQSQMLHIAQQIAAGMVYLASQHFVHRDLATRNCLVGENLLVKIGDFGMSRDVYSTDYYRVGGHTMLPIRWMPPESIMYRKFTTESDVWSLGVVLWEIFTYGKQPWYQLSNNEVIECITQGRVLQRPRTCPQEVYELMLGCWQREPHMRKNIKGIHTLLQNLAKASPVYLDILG
Text: as §4

CDK6 = CDK6 (Homo sapiens, UniProt Q00534); assay: as above; type: biochemical; details: 20 μM M13, 10 μM ATP; read-out: inhibition of enzyme activity relative to control
Chain of CDK6 (Q00534 whole entry): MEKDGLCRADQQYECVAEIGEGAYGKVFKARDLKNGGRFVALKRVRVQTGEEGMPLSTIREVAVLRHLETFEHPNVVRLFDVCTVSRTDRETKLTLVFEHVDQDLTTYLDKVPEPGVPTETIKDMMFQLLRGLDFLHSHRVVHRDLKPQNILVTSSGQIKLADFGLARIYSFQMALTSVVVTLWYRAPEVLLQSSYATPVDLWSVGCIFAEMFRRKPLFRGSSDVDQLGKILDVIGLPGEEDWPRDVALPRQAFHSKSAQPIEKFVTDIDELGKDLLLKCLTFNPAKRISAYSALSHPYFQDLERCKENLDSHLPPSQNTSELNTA
Text: as §4

NF-κB signaling pathway = assay: NF-κB-dependent luciferase activity in NF-κB/293/GFP-Luc cells treated with TNF-α; type: cell-based
Description: First, the anti-inflammatory activity of MLY compounds on the NF-κB signaling pathway was examined using the NF-xB/293/GFP-LucTnl cell line (System Biosciences). This cell line is specifically designed for use in quantitatively monitoring (by luciferase intensity) transcriptional activation related to the NF-κB signal transduction pathway in vitro. Treatment of NF-κB/293/GFP-Luc™ cells with 10 ng/ml TNF-α for 18 hours induced strong activation of the NF-κB signal transduction pathway (FIGS. 8A and 8B). […] MLY2 and MLY8 induced a strongest 90% reduction of NF-κB activation the anti-inflammatory effect of MLY 2 and 8 was dose-related (FIG. 9). The dose to reduce the NF-κB activation by 50% was […] for M13, 5 μM for MLY2 and 11 μM for MLY8 (FIG. 9).

tester TA100 = assay: Ames test (bacterial reverse mutation), strain TA100; type: cell-based, Salmonella typhimurium; details: TA100, all tested concentrations
Description: as §1, §2, §3

CCCCCC(CC(=O)CCc1ccc(O)c(OC)c1)SCC(NC(=O)CCC(N)C(=O)O)C(=O)NCC(=O)O (centres unmarked) [M13, 5-glutathione-6-shogaol]
bioactivity [1]: exhibited bioactivity | revertant colony numbers (Tester strain TA98): did not demonstrate an increase in revertant colony numbers; also recorded: did not increase the number of revertant colonies | 22 cancer-related proteins, expression vs control group (cancer-related proteins): significantly down-regulated | inhibition at 20 µM (RIPK4): 30 to 45% | inhibition at 20 µM (TRKB): 30 to 45% | inhibition at 20 µM (CDK6): 30 to 45% | activity at 20 µM (NF-κB signaling pathway; M13 20 μM, TNF-α 10 ng/ml, 18 hours, read-out: RLU (% with TNFα)): 87.2 ± 8.29% | activity at 50 µM (NF-κB signaling pathway; M13 50 μM, TNF-α 10 ng/ml, 18 hours, read-out: RLU (% with TNFα)): 9.75 ± 2.78% | activity at 100 µM (NF-κB signaling pathway; M13 100 μM, TNF-α 10 ng/ml, 18 hours, read-out: RLU (% with TNFα)): 0.81 ± 0.22% | IC50 (NF-κB signaling pathway; read-out: dose to reduce the NF-κB activation by 50%): ~29 µM | revertant colony numbers (tester TA100): did not demonstrate an increase in revertant colony numbers; also recorded: did not increase the number of revertant colonies

From patent US20260285903A1, “SYNTHESIZED BIOLOGICALLY ACTIVE COMPOUNDS AND METHODS OF MAKING AND USING” (Georgia State University Research Foundation, Inc., priority 2023, published 2026)
